# From PMC11093748, “De novo identification of CD4^+ T cell epitopes” (Nature Methods, 2024)
# Legend:
# 5-4-E8 TCR = experiment: Single SABR-II co-incubation, NFAT-GFP Jurkat; type: cell-based, mouse; settings: I-Ad SABR-II; 18-20 h
# Excerpt: (§1) We have previously described SABRs, which are chimeric receptors containing an extracellular pMHC complex attached to an intracellular CD28-CD3ζ signaling domain. […] We sought to expand this platform to allow antigen discovery for MHC/HLA-II with seamless integration with class I alleles. Here, we created SABRs to present epitopes in MHC-II alleles, by covalently linking the epitope to the β-chain of MHC-II that is attached to the CD28-CD3ζ signaling domains downstream, along with a 2A peptide-linked MHC-II α-chain (Fig. 1a,b). To test whether SABR-IIs could present epitopes to TCRs and induce a signal, we expressed them using lentiviral vectors in NFAT–GFP Jurkat cells, which express green fluorescent protein (GFP) upon NFAT activation and translocation downstream of CD3ζ activation (a kind gift from Y. Chen and A. Weiss). We constructed murine SABR-IIs presenting epitopes in I-Ab, I-Ad and I-Ag7 (Ova, […][41]; ATEG, […][42]; and 2.5mimo, […][43], respectively). We co-incubated the SABR-II-expressing NFAT–GFP Jurkat cells with a separate population of Jurkat cells expressing either the BDC2.5 TCR (recognizes I-Ag7-2.5mimo), OT-II TCR (recognizes I-Ab-Ova), 5-4-E8 TCR (recognizes I-Ad-ATEG) or no TCR. […]
# TCR2 [1] = experiment: I-Ag7 SABR-II HIP library screen, enrichment score; type: cell-based, mouse; settings: TCR_Mean of 3 replicates minus PREDICTED_TCR (slope 0.896988, intercept 4.04602e-5)
# Excerpt: (§2) Given the predominance of HIP-reactive TCRs, we hypothesized that there may be other TCRs that respond to HIPs that were not encoded in our initial library configuration. While the initial I-Ag7 SABR-II library consisted of a number of HIPs, HIP formation is thought to be more widespread in pancreatic β-cells[52],[70]. Therefore, we sought to construct a defined, HIP-focused library to probe whether there were any undiscovered HIP-reactive TCRs that could be recognized by the clonally expanded TCR in our dataset. To test this, we utilized a published proteomic dataset, which predicted that several proteins that were highly expressed in secretory granules of β-cells may contribute to HIP formation. Using their predictions, we built a theoretical HIP library, in which all possible ‘left’ halves of the insulin C chain derived from natural cleavage products were fused to ‘right’ halves derived from secretory granule proteins (Fig. 5a). This 2,561-epitope library (12–25 amino acids per epitope) consisted of only HIPs and a small number of positive control epitopes (Supplementary Table 5). We screened the top three clonally expanded TCRs (TCR1, TCR2 and TCR3) against this library, as these TCRs had not been de-convoluted using the original library. […] To confirm that the HIP itself was important for the cognate interaction, we cloned single 14-mer epitopes into SABR-IIs consisting of seven amino acids of the left portion of the HIP and seven amino acids of the right portion of the HIP. In this way, no nine amino acids from either peptide sequence alone could occupy the binding pocket of I-Ag7, ensuring that TCR reactivity spanned the HIP junction. […] Of note, in all the epitopes that were tested, the ‘left’ half derived from insulin C was conserved, whereas the ‘right’ halves were derived from several other proteins (Fig. 5d). […] Moreover, the promiscuous binding of TCR3 to HIPs corroborates evidence from other NOD mouse-derived TCRs reacting to multiple HIPs[72].
# (§3) To generate the I-Ag7 restricted SABR library, we combined all Immune Epitope Database epitopes with a published immunopeptidome generated by Wan et al.[51]. Sequences were filtered remove all post-translational modifications except deamidation and HIPs and trimmed between 9–25 amino acid lengths. For the insulin C HIP and HLA-DQ8 library, non-contiguous epitopes from Wiles et al.[66] as well as all Immune Epitope Database epitopes were combined to generate the epitope list. Epitope sequences were back-translated using the backtranslate_fast.py script.
# (§4) For SABR library screens, 3 × 10^6 NFAT–GFP Jurkat cells expressing the SABR library were labeled with CellTrace Violet (BioLegend) according to the manufacturer’s protocol before incubation with 3 × 10^6 Jurkat cells expressing the TCR of interest. These mixtures were incubated in a six-well plate for 16–20 h. Cells were stained with anti-CD69-APC-Cy7 where indicated (BioLegend) and the top 1–2% of GFP^+CD69^+ cells were sorted for genomic DNA extraction, indexing and sequencing (see below). Multiplexed assays were scaled on a per-TCR basis (for example 3 × 10^6 for each of three TCRs against 9 × 10^6 library cells). For single SABR assays, unless otherwise defined, 5 × 10^5 SABR expressing NFAT–GFP Jurkat cells (or 5KC cells) were labeled with CellTrace Violet (BioLegend) according to the manufacturer’s protocol before incubation with 5 × 10^5 TCR-expressing Jurkat cells (or 5KC cells) in a round-bottom 96-well plate for 16–20 h. Cells were stained with anti-CD69-APC-Cy7 when indicated and acquired on the Attune NxT flow cytometer (Thermo Fisher Scientific). All flow analysis was performed using FlowJo (BD). For Daudi cell co-culture, 1 × 10^6 Jurkat cells expressing the TCR of interest were incubated with 1 × 10^6 Daudi cells expressing a SABR of interest for 3 days. On day 3, cells were labeled with anti-RT1B-PE and anti-Fas-APC-Cy7 before being acquired on the Attune NxT flow cytometer. […]
# TCR1 = experiment: I-Ag7 SABR-II HIP library screen, enrichment score; type: cell-based, mouse; settings: TCR_Mean of 3 replicates minus PREDICTED_TCR (slope 0.931777, intercept 2.67961e-5)
# Excerpt: as §2, §3, §4
# OT-II TCR = experiment: Single SABR-II co-incubation, NFAT-GFP Jurkat; type: cell-based, mouse; settings: I-Ab SABR-II; 18-20 h
# Excerpt: as §1
# Jurkat cells, No TCR = experiment: Single SABR-II co-incubation, background without TCR; type: cell-based, human; settings: No TCR
# Method in brief: (§5)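 Single SABR-II constructs for putative cognate epitopes were expressed in CellTrace Violet-labelled NFAT–GFP Jurkat cells and co-incubated 1:1 (5 × 10^5 each) with TCR-expressing Jurkat cells for 16–20 h. GFP (with CD69 staining when indicated) was measured by flow cytometry. Wells with GFP above the no-TCR control were scored positive.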
# TCR4 = experiment: Single SABR-II co-incubation, NFAT-GFP Jurkat; type: cell-based, mouse; settings: TCR 4
# Method in brief: as §5
# TCR15 = experiment: Single SABR-II co-incubation, NFAT-GFP Jurkat; type: cell-based, mouse; settings: TCR 15, Fig 3B, 18 h
# Method in brief: as §5
# TCR2 [2] = experiment: Single SABR-II co-incubation, NFAT-GFP Jurkat; type: cell-based, mouse; settings: TCR 2, Ext. Data Fig. 6C, 18-20 hr
# Method in brief: as §5
# GSE.6H9 TCR = experiment: Single SABR-II co-incubation, NFAT-GFP Jurkat (HLA-DQ8); type: cell-based, human; settings: GSE 6.H9 TCR
# Excerpt: (§6) We have previously described SABRs, which are chimeric receptors containing an extracellular pMHC complex attached to an intracellular CD28-CD3ζ signaling domain. […] We sought to expand this platform to allow antigen discovery for MHC/HLA-II with seamless integration with class I alleles. Here, we created SABRs to present epitopes in MHC-II alleles, by covalently linking the epitope to the β-chain of MHC-II that is attached to the CD28-CD3ζ signaling domains downstream, along with a 2A peptide-linked MHC-II α-chain (Fig. 1a,b). To test whether SABR-IIs could present epitopes to TCRs and induce a signal, we expressed them using lentiviral vectors in NFAT–GFP Jurkat cells, which express green fluorescent protein (GFP) upon NFAT activation and translocation downstream of CD3ζ activation (a kind gift from Y. Chen and A. Weiss). We constructed murine SABR-IIs presenting epitopes in I-Ab, I-Ad and I-Ag7 (Ova, […][41]; ATEG, […][42]; and 2.5mimo, […][43], respectively). We co-incubated the SABR-II-expressing NFAT–GFP Jurkat cells with a separate population of Jurkat cells expressing either the BDC2.5 TCR (recognizes I-Ag7-2.5mimo), OT-II TCR (recognizes I-Ab-Ova), 5-4-E8 TCR (recognizes I-Ad-ATEG) or no TCR. […] The signal from the NFAT–GFP reporter offered minimal background in absence of a cognate TCR and correlated with surface SABR expression in the presence of a cognate TCR (Extended Data Fig. 1c–e). […] We confirmed the ability of the DQ8-InsB9:23 SABR-II to present the epitope to two previously described, T1D patient-derived TCRs GSE.6H9 and GSE.20D11 (ref. [46]).
# (§7) For SABR library screens, 3 × 10^6 NFAT–GFP Jurkat cells expressing the SABR library were labeled with CellTrace Violet (BioLegend) according to the manufacturer’s protocol before incubation with 3 × 10^6 Jurkat cells expressing the TCR of interest. These mixtures were incubated in a six-well plate for 16–20 h. Cells were stained with anti-CD69-APC-Cy7 where indicated (BioLegend) and the top 1–2% of GFP^+CD69^+ cells were sorted for genomic DNA extraction, indexing and sequencing (see below). Multiplexed assays were scaled on a per-TCR basis (for example 3 × 10^6 for each of three TCRs against 9 × 10^6 library cells). For single SABR assays, unless otherwise defined, 5 × 10^5 SABR expressing NFAT–GFP Jurkat cells (or 5KC cells) were labeled with CellTrace Violet (BioLegend) according to the manufacturer’s protocol before incubation with 5 × 10^5 TCR-expressing Jurkat cells (or 5KC cells) in a round-bottom 96-well plate for 16–20 h. Cells were stained with anti-CD69-APC-Cy7 when indicated and acquired on the Attune NxT flow cytometer (Thermo Fisher Scientific). All flow analysis was performed using FlowJo (BD). For Daudi cell co-culture, 1 × 10^6 Jurkat cells expressing the TCR of interest were incubated with 1 × 10^6 Daudi cells expressing a SABR of interest for 3 days. On day 3, cells were labeled with anti-RT1B-PE and anti-Fas-APC-Cy7 before being acquired on the Attune NxT flow cytometer.
# GSE.20D11 TCR = experiment: as above; type: cell-based, human; settings: GSE 20.D11 TCR
# Excerpt: as §6, §7
# [3] = Ext. Data Fig. 6C, 18-20 hr, technical replicate 1
# [4] = Ext. Data Fig. 6C, 18-20 hr, technical replicate 2
# [5] = Fig 3B, 18 h, biological replicate 1
# [6] = Fig 3B, 18 h, biological replicate 2
# [7] = Fig 3B, 18 h, biological replicate 3
sequence,measurement,setting,value
ATEGRVRVNSAYQDK,GFP and CD69 expression in SABR-II-expressing NFAT-GFP Jurkat cells (in words),5-4-E8 TCR,Robust GFP and CD69 expression
EVEDPQVAQLNAARDPNRESLD,Enrichment score,TCR2 [1],0.0005844
EVEDPQVEQLEGEDDPDRSMK,Enrichment score,TCR2 [1],0.000574
EVEDPQVEQLELSGKEVKGEEKGE,Enrichment score,TCR1,0.0005139
EVEDPQVEWSRMDQLAKELT,Enrichment score,TCR1,0.0005047
EVQEKPQELTDQDQSQEESQEG,Enrichment score,TCR1,0.0005738
GAGDLQTLALEVEEEGSANRRAED,Enrichment score,TCR2 [1],0.0005985
GDLQTLALEVAQSGKEVKGEEKGE,Enrichment score,TCR1,0.0005301
ISQAVHAAHAEINEAGR [Ova],GFP and CD69 expression in SABR-II-expressing NFAT-GFP Jurkat cells (in words),OT-II TCR,Robust GFP and CD69 expression
LQTLALNAARD,%GFP+CD69+ cells of SABR-NFAT-GFP-Jurkat cells,"Jurkat cells, No TCR; [3]",4.02%
same,%GFP+CD69+ cells of SABR-NFAT-GFP-Jurkat cells,"Jurkat cells, No TCR; [4]",3.97%
same,%GFP+CD69+ cells of SABR-NFAT-GFP-Jurkat cells,"Jurkat cells, No TCR; [5]",2.49%
same,%GFP+CD69+ cells of SABR-NFAT-GFP-Jurkat cells,"Jurkat cells, No TCR; [6]",7.87%
same,%GFP+CD69+ cells of SABR-NFAT-GFP-Jurkat cells,"Jurkat cells, No TCR; [7]",3.83%
same,%GFP+CD69+ cells of SABR-NFAT-GFP-Jurkat cells,TCR4; [3],22.3%
same,%GFP+CD69+ cells of SABR-NFAT-GFP-Jurkat cells,TCR4; [4],22%
same,%GFP+CD69+ cells of SABR-NFAT-GFP-Jurkat cells,TCR4; [5],42.4%
same,%GFP+CD69+ cells of SABR-NFAT-GFP-Jurkat cells,TCR4; [6],41.7%
same,%GFP+CD69+ cells of SABR-NFAT-GFP-Jurkat cells,TCR4; [7],45.77%
same,%GFP+CD69+ cells of SABR-NFAT-GFP-Jurkat cells,TCR15; biological replicate 1,43.67%
same,%GFP+CD69+ cells of SABR-NFAT-GFP-Jurkat cells,TCR15; biological replicate 2,48.77%
same,%GFP+CD69+ cells of SABR-NFAT-GFP-Jurkat cells,TCR15; biological replicate 3,51.63%
PGDLQTLALEVALLDEGHYPVRES,Enrichment score,TCR2 [1],0.0008737
RQNGVLNSWTDQD,%GFP+CD69+ cells of SABR-NFAT-GFP-Jurkat cells,"Jurkat cells, No TCR; [3]",1.51%
same,%GFP+CD69+ cells of SABR-NFAT-GFP-Jurkat cells,"Jurkat cells, No TCR; [4]",1.42%
same,%GFP+CD69+ cells of SABR-NFAT-GFP-Jurkat cells,TCR2 [2]; technical replicate 1,1.56%
same,%GFP+CD69+ cells of SABR-NFAT-GFP-Jurkat cells,TCR2 [2]; technical replicate 2,1.62%
SHLVEALYLVCERG,Frequency of %GFP+CD69+ cells of SABR-NFAT-GFP-Jurkat cells,GSE.6H9 TCR; biological replicate 1 of 3,16.8%
same,Frequency of %GFP+CD69+ cells of SABR-NFAT-GFP-Jurkat cells,GSE.6H9 TCR; biological replicate 2 of 3,29.6%
same,Frequency of %GFP+CD69+ cells of SABR-NFAT-GFP-Jurkat cells,GSE.6H9 TCR; biological replicate 3 of 3,27.9%
same,Frequency of %GFP+CD69+ cells of SABR-NFAT-GFP-Jurkat cells,GSE.20D11 TCR; biological replicate 1 of 3,24.8%
same,Frequency of %GFP+CD69+ cells of SABR-NFAT-GFP-Jurkat cells,GSE.20D11 TCR; biological replicate 2 of 3,42.4%
same,Frequency of %GFP+CD69+ cells of SABR-NFAT-GFP-Jurkat cells,GSE.20D11 TCR; biological replicate 3 of 3,41.1%
SPGDLQTLALEVPSPKESKEADVA,Enrichment score,TCR1,0.0005282
VAQLELGGGPGASEASAKKKDESV,Enrichment score,TCR2 [1],0.0007771
